In the first experiment the test system is 4 PI3K isoforms (Human recombinant GST-PI3K). In words: PI3K scintillation proximity assay, best IC50 obtained with the four isoforms (alpha, beta, delta, gamma). In kind it is biochemical. The following applies: best IC50 obtained with the four isoforms of PI3K; read-out: Best potency measured on the 4 PI3K isoforms. (In general: SPA uses beads or plates that emit light when radiolabelled molecules are held near them.)
Take `CN1CCCC1CCn1nc(C(=O)N2CCOCC2)c2c1-c1ccccc1S(=O)(=O)C2` (centres unmarked) [Example 71, 1-[2-(1-Methylpyrrolidin-2-yl)ethyl]-3-(morpholin-4-ylcarbonyl)-1,4-dihydrothiochromeno[4,3-c]pyrazole 5,5-dioxide]: the IC50 was 1.23 µM.
As for `COCCN1CCC[C@@H](n2nc(C(=O)N3CCOCC3)c3c2-c2ccccc2S(=O)(=O)C3)C1` (single isomer, unassigned) [Example 347, 1-[1-(2-methoxyethyl)piperidin-3-yl]-3-(morpholin-4-ylcarbonyl)-1,4-dihydrothiochromeno[4,3-c]pyrazole 5,5-dioxide], the IC50 is 3.55 µM.
As for `O=C(CCN1CCC[C@H](n2nc(C(=O)N3CCOCC3)c3c2-c2ccccc2S(=O)(=O)C3)C1)N1CCC(F)(F)C1` (stereo in doubt) [Example 441, 1-{1-[3-(3,3-difluoropyrrolidin-1-yl)-3-oxopropyl]piperidin-3-yl}-3-(morpholin-4-ylcarbonyl)-1,4-dihydrothiochromeno[4,3-c]pyrazole 5,5-dioxide], the IC50 is 0.041 µM.
Still for that read-out and setting: the result for `O=C(c1nn(-c2ccccc2)c2c1CS(=O)(=O)c1ccc(Br)cc1-2)N1CCOCC1` [Example 64] reads 1.3 µM; that for `O=C(c1nn([C@H]2CCCN(CC3CCOCC3)C2)c2c1CS(=O)(=O)c1ncccc1-2)N1CCOCC1` (single isomer, unassigned) [Example 376, 3-(morpholin-4-ylcarbonyl)-1-[1-(tetrahydro-2H-pyran-4-ylmethyl)piperidin-3-yl]1,4-dihydropyrazolo[3′,4′:4,5]thiopyrano[2,3-b]pyridine 5,5-dioxide], 0.013 µM.
In the case of `O=C(c1nn([C@H]2CCCN(Cc3cccnc3)C2)c2c1CS(=O)(=O)c1ccccc1-2)N1CCOCC1` (stereo in doubt) [Example 466, 3-(morpholin-4-ylcarbonyl)-1-[1-(pyridin-3-ylmethyl)piperidin-3-yl]-1,4-dihydrothiochromeno[4,3-c]pyrazole 5,5-dioxide], the IC50 was found to be 0.085 µM.
As to `O=C(c1nn(C2CCC(CN3CCOCC3)CC2)c2c1CS(=O)(=O)c1ccccc1-2)N1CCOCC1` (centres unmarked) [Example 215, 3-(Morpholin-4-ylcarbonyl)-1-[4-(morpholin-4-ylmethyl)cyclohexyl]-1,4-dihydrothiochromeno[4,3-c]pyrazole 5,5-dioxide], the IC50 came to 0.912 µM.
The same measure, in the same setting: under `O=C(c1nn(C2CCN(CCn3cccn3)C2)c2c1CS(=O)(=O)c1ccccc1-2)N1CCOCC1` (centres unmarked) [Example 286, 3-(Morpholin-4-ylcarbonyl)-1-{1-[2-(1H-pyrazol-1-yl)ethyl]pyrrolidin-3-yl}-1,4-dihydrothiochromeno[4,3-c]pyrazole 5,5-dioxide] stands 0.257 µM; under `N#Cc1cccc(-n2nc(C(=O)N3CCOCC3)c3c2-c2ccccc2S(=O)(=O)C3)c1` [Example 68], 0.376 µM; under `O=C(CCN1CCC[C@H](n2nc(C(=O)N3CCOCC3)c3c2-c2ccccc2S(=O)(=O)C3)C1)N1CC(F)(F)C1` (stereo in doubt) [Example 429, 1-{1-[3-(3,3-difluoroazetidin-1-yl)-3-oxopropyl]piperidin-3-yl}-3-(morpholin-4-ylcarbonyl)-1,4-dihydrothiochromeno[4,3-c]pyrazole 5,5-dioxide], 0.039 µM.
As for `O=C(c1nn(-c2ccc3c(c2)OCCO3)c2c1CS(=O)(=O)c1ccccc1-2)N1CCOCC1` [Example 23, 1-(2,3-dihydro-1,4-benzodioxin-6-yl)-3-(morpholin-4-ylcarbonyl)-1,4-dihydrothiochromeno[4,3-c]pyrazole 5,5-dioxide], the IC50 was 0.67 µM.
The same measure, in the same setting: the result for `O=C(O)c1nn(-c2ccc(CN3CCOCC3)cc2)c2c1CS(=O)(=O)c1ccccc1-2` [Example 238, 1-[4-(Morpholin-4-ylmethyl)phenyl]-1,4-dihydrothiochromeno[4,3-c]pyrazole-3-carboxylic acid 5,5-dioxide] reads 4.04 µM; that for `COc1ccc(C(=O)Cn2nc(C(=O)N3CCOCC3)c3c2-c2ccccc2S(=O)(=O)C3)cc1` [Example 317], 14.5 µM; that for `O=C(NC1CCOCC1)c1cccc(-n2nc(C(=O)N3CCOCC3)c3c2-c2ccccc2S(=O)(=O)C3)c1` [Example 148, 3-[3-(Morpholin-4-ylcarbonyl)-5,5-dioxidothiochromeno[4,3-c]pyrazol-1(4H)-yl]-N-(tetrahydro-2H-pyran-4-yl)benzamide], 1.26 µM.
Take `O=C(c1nn(C2CCCN(CCN3CC(F)(F)C3)C2)c2c1CS(=O)(=O)c1c(F)cccc1-2)N1CCOCC1` (centres unmarked) [Example 414, 1-{1-[2-(3,3-Difluoroazetidin-1-yl)ethyl]piperidin-3-yl}-6-fluoro-3-(morpholin-4-ylcarbonyl)-1,4-dihydrothiochromeno[4,3-c]pyrazole 5,5-dioxide]: the IC50 turned out to be 0.038 µM.
Take `O=C(c1nn([C@@H]2CCCN(CCC3CCOCC3)C2)c2c1CS(=O)(=O)c1ccccc1-2)N1CCOCC1` (single isomer, unassigned) [Example 307, 3-(morpholin-4-ylcarbonyl)-1-{1-[2-(tetrahydro-2H-pyran-4-yl)ethyl]piperidin-3-yl}-1,4-dihydrothiochromeno[4,3-c]pyrazole 5,5-dioxide]: the IC50 is 2.2 µM.
For the compound `CC(C)CCOC1CCN(Cc2ccc(-n3nc(C(=O)N4CCOCC4)c4c3-c3ccccc3S(=O)(=O)C4)cc2)C1` (centres unmarked) [Example 233, 1-(4-{[3-(3-Methylbutoxy)pyrrolidin-1-yl]methyl}phenyl)-3-(morpholin-4-ylcarbonyl)-1,4-dihydrothiochromeno[4,3-c]pyrazole 5,5-dioxide], the IC50 turned out to be 0.167 µM.
Turning to `O=C(c1cccc(-n2nc(C(=O)N3CCOCC3)c3c2-c2ccccc2S(=O)(=O)C3)c1)N1CCCCC1` [Example 125, 3-(Morpholin-4-ylcarbonyl)-1-[3-(piperidin-1-ylcarbonyl)phenyl]-1,4-dihydrothiochromeno[4,3-c]pyrazole 5,5-dioxide], the IC50 was 0.182 µM.
For `O=C(c1nn(C2CCN(CC3CCOC3)C2)c2c1CS(=O)(=O)c1ccccc1-2)N1CCOCC1` (centres unmarked) [Example 303, 3-(Morpholin-4-ylcarbonyl)-1-[1-(tetrahydrofuran-3-ylmethyl)pyrrolidin-3-yl]-1,4-dihydrothiochromeno[4,3-c]pyrazole 5,5-dioxide], the IC50 was found to be 0.353 µM.
With `O=C(c1nn([C@@H]2CCCN(CCC3CCOCC3)C2)c2c1CS(=O)(=O)c1ncccc1-2)N1CCOCC1` (single isomer, unassigned) [Example 423, 3-(morpholin-4-ylcarbonyl)-1-{1-[2-(tetrahydro-2H-pyran-4-yl)ethyl]piperidin-3-yl}-1,4-dihydropyrazolo[3′,4′:4,5]thiopyrano[2,3-b]pyridine 5,5-dioxide], the IC50 stood at 0.099 µM.
Same read-out and setting: under `O=C(c1nn(-c2ccc(N3CCOCC3)cc2)c2c1CS(=O)(=O)c1ccccc1-2)N1CCOCC1` [Example 155, 3-(Morpholin-4-ylcarbonyl)-1-(4-morpholin-4-ylphenyl)-1,4-dihydrothiochromeno[4,3-c]pyrazole 5,5-dioxide] stands 3.94 µM; under `CC(C)(C)OC(=O)N1CCC(n2nc(C(=O)N3CCOCC3)c3c2-c2ccccc2S(=O)(=O)C3)CC1` [Example 119, tert-Butyl 4-[3-(morpholin-4-ylcarbonyl)-5,5-dioxidothiochromeno[4,3-c]pyrazol-1(4H)-yl]piperidine-1-carboxylate], 0.808 µM; under `COCCNC(=O)c1cccc(-n2nc(C(=O)N3CCOCC3)c3c2-c2ccccc2S(=O)(=O)C3)c1` [Example 126, N-(2-Methoxyethyl)-3-[3-(morpholin-4-ylcarbonyl)-5,5-dioxidothiochromeno[4,3-c]pyrazol-1 (4H)-yl]benzamide], 1.11 µM.
As for `CC(C)c1ccc(-n2nc(C(=O)N3CCOCC3)c3c2-c2ccccc2S(=O)(=O)C3)cc1` [Example 30, 1-(4-isopropylphenyl)-3-(morpholin-4-ylcarbonyl)-1,4-dihydrothiochromeno[4,3-c]pyrazole 5,5-dioxide], the IC50 came to 1.47 µM.
The same measure, in the same setting: under `O=C(c1nn(-c2ccccc2)c2c1CS(=O)(=O)c1ccc(CN3CCOCC3)cc1-2)N1CCOCC1` [Example 162, 3-(Morpholin-4-ylcarbonyl)-8-(morpholin-4-ylmethyl)-1-phenyl-1,4-dihydrothiochromeno[4,3-c]pyrazole 5,5-dioxide] stands 1.62 µM; under `O=C(c1nn([C@H]2CCCN(C3CCCNC3)C2)c2c1CS(=O)(=O)c1ccccc1-2)N1CCOCC1` (some centres unmarked) [Example 469], 0.025 µM; under `O=C(c1nn(C2CCCN(C3CCOCC3)C2)c2c1CS(=O)(=O)c1ccccc1-2)N1CCOCC1` (centres unmarked) [Example 293, 3-(Morpholin-4-ylcarbonyl)-1-[1-(tetrahydro-2H-pyran-4-yl)piperidin-3-yl]-1,4-dihydrothiochromeno[4,3-c]pyrazole 5,5-dioxide], 0.254 µM.
As to `Cc1nnc(-c2cccc(-n3nc(C(=O)N4CCOCC4)c4c3-c3ccccc3S(=O)(=O)C4)c2)o1` [Example 182, 1-[3-(5-Methyl-1,3,4-oxadiazol-2-yl)phenyl]-3-(morpholin-4-ylcarbonyl)-1,4-dihydrothiochromeno[4,3-c]pyrazole 5,5-dioxide], the IC50 was 1.2 µM.

The experiment is the same for the next values; noted with them: inhibition at 20 μM.
For the compound `O=C(Nc1cccc2c1S(=O)(=O)Cc1c(C(=O)N3CCOCC3)nn(-c3ccccc3)c1-2)c1ccccc1` [Example 318], the “Best potency measured on the 4 PI3K isoforms, % inh @20 μM” value stood at 10% inh @20 μM.
Same read-out and setting: the result for `O=C(c1nn(-c2ccccc2)c2c1CS(=O)(=O)c1cc(CN3CCOCC3)ccc1-2)N1CCOCC1` [Example 329] reads 23% inh @20 μM.
Consider `CC1(C)c2c(C(=O)N3CCOCC3)nn(-c3ccccc3)c2-c2ccccc2S1(=O)=O` [Example 60, 4,4-dimethyl-3-(morpholin-4-ylcarbonyl)-1-phenyl-1,4-dihydrothiochromeno[4,3-c]pyrazole 5,5-dioxide], for which the “Best potency measured on the 4 PI3K isoforms, % inh @20 μM” value stood at 52% in @20 μM.
Same read-out and setting: under `CC(C)c1ccccc1-n1nc(C(=O)N2CCOCC2)c2c1-c1ccccc1S(=O)(=O)C2` [Example 312, 1-(2-Isopropylphenyl)-3-(morpholin-4-ylcarbonyl)-1,4-dihydrothiochromeno[4,3-c]pyrazole 5,5-dioxide] stands 47% inh @20 μM.

Source of the values: US9073940B2, “Tricyclic pyrazol amine derivatives” (MERCK SERONO SA, priority 2009, dated 2015).
